“And” between values parts separate entries of the source, which are not always exact repeats. Identical values can stand only once. Toxic doses and inconclusive results are not listed.
Tested on: P388 leukemia ip, CD2F1 mice, survival T/C
Experiment: NCI In Vivo Anticancer Drug Screen. Data for tumor model P388 Leukemia (intraperitoneal) in CD2F1 (CDF1) mice
Details: endpoint: median survival time, higher = longer survival
In short: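 Mice carrying the transplanted tumor received test compound or vehicle. Survival was recorded in each group, and the value is the treated-group measurement divided by that of the vehicle-treated control group.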

[1] = dose: 50.0 mg/kg/injection, schedule: Q01DX009 (ip), vehicle: suspension in saline
[2] = dose: 100.0 mg/kg/injection, schedule: Q01DX009 (ip), vehicle: suspension in saline
[3] = dose: 100.0 mg/kg/injection, schedule: Q01DX009 (ip), vehicle: saline with Tween-80
[4] = dose: 100.0 mg/kg/injection, schedule: Q04DX003 (ip), vehicle: saline with Tween-80
[5] = dose: 200.0 mg/kg/injection, schedule: Q01DX009 (ip), vehicle: saline with Tween-80
[6] = dose: 400.0 mg/kg/injection, schedule: Q01DX009 (ip), vehicle: saline with Tween-80
[7] = dose: 60.0 mg/kg/injection, schedule: Q01DX005 (ip), vehicle: saline with Tween-80
[8] = dose: 120.0 mg/kg/injection, schedule: Q01DX005 (ip), vehicle: saline with Tween-80
[9] = dose: 50.0 mg/kg/injection, schedule: Q01DX005 (ip), vehicle: saline
[10] = dose: 100.0 mg/kg/injection, schedule: Q01DX005 (ip), vehicle: saline
[11] = dose: 200.0 mg/kg/injection, schedule: Q01DX005 (ip), vehicle: saline
[12] = dose: 50.0 mg/kg/injection, schedule: Q01DX009 (ip), vehicle: saline with Tween-80
[13] = dose: 50.0 mg/kg/injection, schedule: Q01DX009 (ip), vehicle: Klucel (hydroxypropylcellulose) (HPC)
[14] = dose: 100.0 mg/kg/injection, schedule: Q01DX009 (ip), vehicle: Klucel (hydroxypropylcellulose) (HPC)
[15] = dose: 200.0 mg/kg/injection, schedule: Q01DX009 (ip), vehicle: Klucel (hydroxypropylcellulose) (HPC)

CC1NC(C(=O)O)Cc2c1[nH]c1ccccc21 (stereo not given)
T/C (dose: 25.0 mg/kg/injection, schedule: Q01DX009 (ip), vehicle: suspension in saline): 105 % of control | T/C [1]: 105 % of control | T/C (dose: 50.0 mg/kg/injection, schedule: Q04DX003 (ip), vehicle: saline): 100 % of control | T/C [2]: 102 % of control | T/C (dose: 100.0 mg/kg/injection, schedule: Q04DX003 (ip), vehicle: saline): 100 % of control | T/C (dose: 200.0 mg/kg/injection, schedule: Q04DX003 (ip), vehicle: saline): 102 % of control

Cc1ccc2c(c1)Sc1ccc3ccccc3c1N2
T/C [3]: 100 % of control | T/C [4]: 90 % of control | T/C [5]: 109 % of control | T/C (dose: 200.0 mg/kg/injection, schedule: Q04DX003 (ip), vehicle: saline with Tween-80): 100 % of control | T/C [6]: 113 % of control | T/C (dose: 400.0 mg/kg/injection, schedule: Q04DX003 (ip), vehicle: saline with Tween-80): 100 % of control

CCOC(=O)c1oc2cc(O)ccc2c(=O)c1-c1ccc(OC)c(OC)c1
T/C [7]: 96 % of control | T/C [8]: 87 % of control | T/C (dose: 240.0 mg/kg/injection, schedule: Q01DX005 (ip), vehicle: saline with Tween-80): 86 % of control

CC(C(=O)O)N(CCC#N)CCC#N (stereo not given)
T/C [9]: 95 % of control | T/C [10]: 100 % of control | T/C [11]: 95 % of control

O=C(c1cc(Nc2ccnc3cc(Cl)ccc23)ccc1O)N1CCCCC1
T/C (dose: 100.0 mg/kg/injection, schedule: Q01DX005 (ip), vehicle: saline with Tween-80): 120 % of control | T/C (dose: 200.0 mg/kg/injection, schedule: Q01DX005 (ip), vehicle: saline with Tween-80): 121 % of control

NC=NCC(=O)O
T/C (dose: 50.0 mg/kg/injection, schedule: Q01DX009 (ip), vehicle: saline): 96 % of control | T/C (dose: 100.0 mg/kg/injection, schedule: Q01DX009 (ip), vehicle: saline): 100 % of control | T/C (dose: 200.0 mg/kg/injection, schedule: Q01DX009 (ip), vehicle: saline): 99 % of control

FC(F)(F)c1cc(NC(=S)SCc2ccc3c(c2)OCO3)ccc1Cl
T/C [1]: 100 % of control | T/C [2]: 100 % of control | T/C (dose: 200.0 mg/kg/injection, schedule: Q01DX009 (ip), vehicle: suspension in saline): 100 % of control

COc1ccc2cc1Oc1ccc(cc1)C[C@H]1c3cc(c(OC)cc3CCN1C)Oc1c(OC)c(OC)cc3c1[C@H](C2)N(C)CC3
T/C (dose: 12.5 mg/kg/injection, schedule: Q01DX009 (ip), vehicle: other): 94 % of control and 95 % of control | T/C (dose: 25.0 mg/kg/injection, schedule: Q01DX009 (ip), vehicle: other): 100 % of control and 97 % of control | T/C (dose: 25.0 mg/kg/injection, schedule: Q04DX003 (ip), vehicle: suspension in saline): 98 % of control | T/C (dose: 50.0 mg/kg/injection, schedule: Q01DX009 (ip), vehicle: other): 100 % of control and 97 % of control | T/C (dose: 50.0 mg/kg/injection, schedule: Q04DX003 (ip), vehicle: suspension in saline): 88 % of control | T/C (dose: 100.0 mg/kg/injection, schedule: Q01DX009 (ip), vehicle: other): 103 % of control | T/C (dose: 100.0 mg/kg/injection, schedule: Q04DX003 (ip), vehicle: suspension in saline): 89 % of control | T/C (dose: 200.0 mg/kg/injection, schedule: Q04DX003 (ip), vehicle: suspension in saline): 87 % of control

CNC(=O)Nc1[nH]c(=O)ncc1I
T/C (dose: 30.0 mg/kg/injection, schedule: Q01DX005 (ip), vehicle: Klucel (hydroxypropylcellulose) (HPC)): 100 % of control | T/C (dose: 60.0 mg/kg/injection, schedule: Q01DX005 (ip), vehicle: Klucel (hydroxypropylcellulose) (HPC)): 96 % of control | T/C (dose: 120.0 mg/kg/injection, schedule: Q01DX005 (ip), vehicle: Klucel (hydroxypropylcellulose) (HPC)): 117 % of control

O=S(O)OC1(O)CCCCC1
T/C (dose: 100.0 mg/kg/injection, schedule: Q04DX002 (ip), vehicle: saline): 110 % of control | T/C (dose: 200.0 mg/kg/injection, schedule: Q04DX002 (ip), vehicle: saline): 95 % of control | T/C (dose: 400.0 mg/kg/injection, schedule: Q04DX002 (ip), vehicle: saline): 100 % of control

COc1c2cc(O)cc1CCCC1=CC(=O)C=C(CCC2)C1=O
T/C (dose: 100.0 mg/kg/injection, schedule: Q01DX001 (ip), vehicle: Klucel (hydroxypropylcellulose) (HPC)): 99 % of control | T/C (dose: 200.0 mg/kg/injection, schedule: Q01DX001 (ip), vehicle: Klucel (hydroxypropylcellulose) (HPC)): 99 % of control | T/C (dose: 400.0 mg/kg/injection, schedule: Q01DX001 (ip), vehicle: Klucel (hydroxypropylcellulose) (HPC)): 108 % of control

O=[N+]([O-])c1ccc(COc2ccccc2)cc1
T/C (dose: 100.0 mg/kg/injection, schedule: Q01DX001 (ip), vehicle: saline): 104 % of control | T/C (dose: 200.0 mg/kg/injection, schedule: Q01DX001 (ip), vehicle: saline): 113 % of control | T/C (dose: 400.0 mg/kg/injection, schedule: Q01DX001 (ip), vehicle: saline): 124 % of control

C=Cc1ccccc1-c1ccccc1C(=O)OC
T/C (dose: 25.0 mg/kg/injection, schedule: Q04DX003 (ip), vehicle: saline with Tween-80): 100 % of control | T/C (dose: 50.0 mg/kg/injection, schedule: Q04DX003 (ip), vehicle: saline with Tween-80): 101 % of control | T/C [4]: 99 % of control

CC12CC3CC(C)(C1)CC(OCCN)(C3)C2
T/C [7]: 101 % of control | T/C [8]: 104 % of control

Ic1ccc(N=Cc2cccs2)cc1
T/C [12]: 106 % of control | T/C [3]: 108 % of control | T/C [5]: 123 % of control | T/C [6]: 115 % of control

c1cc2ccc1CCc1ccc(cc1)CC2
T/C (dose: 100.0 mg/kg/injection, schedule: Q01DX001 (ip), vehicle: saline sonified): 90 % of control | T/C (dose: 200.0 mg/kg/injection, schedule: Q01DX001 (ip), vehicle: saline sonified): 100 % of control | T/C (dose: 400.0 mg/kg/injection, schedule: Q01DX001 (ip), vehicle: saline sonified): 100 % of control

CN(C)CCOC1OCN(C)CC1(C)C (stereo not given)
T/C [12]: 104 % of control | T/C [3]: 111 % of control | T/C [5]: 110 % of control

CCOC(=O)CC1Cc2ccc3ccc(OC)cc3c2C1=O (stereo not given)
T/C (dose: 12.5 mg/kg/injection, schedule: Q01DX009 (ip), vehicle: distilled water + Tween-80): 102 % of control | T/C (dose: 25.0 mg/kg/injection, schedule: Q01DX009 (ip), vehicle: distilled water + Tween-80): 100 % of control | T/C (dose: 50.0 mg/kg/injection, schedule: Q01DX009 (ip), vehicle: distilled water + Tween-80): 95 % of control | T/C (dose: 100.0 mg/kg/injection, schedule: Q01DX009 (ip), vehicle: distilled water + Tween-80): 97 % of control | T/C (dose: 200.0 mg/kg/injection, schedule: Q01DX009 (ip), vehicle: distilled water + Tween-80): 93 % of control

CC1=CC(=N/Cl)/C=CC/1=N/Cl
T/C [9]: 109 % of control | T/C [10]: 111 % of control | T/C [11]: 114 % of control

CC1c2ccccc2OS(=O)N1C (stereo not given)
T/C [13]: 104 % of control | T/C [14]: 110 % of control | T/C [15]: 111 % of control

O=C1c2ccccc2C(=C2c3ccccc3C(=O)c3ccccc32)c2ccccc21
T/C [13]: 99 % of control | T/C [14]: 91 % of control | T/C [15]: 92 % of control | T/C (dose: 400.0 mg/kg/injection, schedule: Q01DX009 (ip), vehicle: Klucel (hydroxypropylcellulose) (HPC)): 97 % of control

COc1ccc(C(C)(C)c2cc3c(cc2OC)OCO3)cc1
T/C [7]: 104 % of control | T/C [8]: 116 % of control

CC12C(=O)OC(=O)C1(C)C1CCC2O1 (stereo not given)
T/C (dose: 0.93 mg/kg/injection, schedule: Q01DX005 (ip), vehicle: saline with Tween-80): 109 % of control | T/C (dose: 1.87 mg/kg/injection, schedule: Q01DX005 (ip), vehicle: saline with Tween-80): 102 % of control

Cc1ccc2c(c1)C=CC(C#N)N2C(=O)Oc1ccccc1 (stereo not given)
T/C (dose: 6.25 mg/kg/injection, schedule: Q01DX009 (ip), vehicle: saline): 99 % of control and 101 % of control | T/C (dose: 12.5 mg/kg/injection, schedule: Q01DX009 (ip), vehicle: saline): 98 % of control | T/C (dose: 25.0 mg/kg/injection, schedule: Q01DX009 (ip), vehicle: saline): 93 % of control and 96 % of control

CC([NH-])C[NH-].[Br][Pt+2][Br] (stereo not given)
T/C (dose: 12.5 mg/kg/injection, schedule: Q04DX002 (ip), vehicle: saline with Tween-80): 158 % of control | T/C (dose: 25.0 mg/kg/injection, schedule: Q04DX002 (ip), vehicle: saline with Tween-80): 174 % of control

— PubChem BioAssay AID330 (DTP/NCI, 2004)
